Results: patent US9850283B2, “Macrocyclic inhibitors of the PD-1/PD-L1 and CD80(B7-1)/PD-L1 protein/protein interactions” (BRISTOL-MYERS SQUIBB COMPANY, priority 2013, dated 2017)
Read-outs that look alike come from different tables or passages of the source. Each block holds one compound with its values, some of them ahead of it. Positions of bridges follow the written chain, without caps; N, C: chain ends. Non-standard residues stand in square brackets, D forms with d. Residues, ends and D or L forms follow the SMILES beside them. ξ: configuration not given here. PEG12 = NCCOCCOCCOCCOCCOCCOCCOCCOCCOCCOCCOCCOCCC(=O)O; Phe(4-Cl) = N[C@@H](Cc1ccc(Cl)cc1)C(=O)O; Bta = N[C@@H](Cc1csc2ccccc12)C(=O)O; Hyp = O=C(O)[C@@H]1C[C@@H](O)CN1; NMeF = CN[C@@H](Cc1ccccc1)C(=O)O; dHyp = O=C(O)[C@H]1C[C@H](O)CN1; NMeNle = CCCC[C@H](NC)C(=O)O; NMeM = CN[C@@H](CCSC)C(=O)O; NMeA = CN[C@@H](C)C(=O)O; Orn = NCCC[C@H](N)C(=O)O; Dap = NC[C@H](N)C(=O)O; ξC = NC(CS)C(=O)O; Sar = CNCC(=O)O

Key:
Human PD-L1/PD-1 = target: T1, Human PD-L1/PD-1 (Homo sapiens, UniProt Q9NZQ7); test: HTRF PD-1-Ig/PD-L1-His binding assay (human PD-L1)
T1 construct: made in house; host or cells: HEK293T
T1 sequence (Q9NZQ7 with tags, fused parts or gaps): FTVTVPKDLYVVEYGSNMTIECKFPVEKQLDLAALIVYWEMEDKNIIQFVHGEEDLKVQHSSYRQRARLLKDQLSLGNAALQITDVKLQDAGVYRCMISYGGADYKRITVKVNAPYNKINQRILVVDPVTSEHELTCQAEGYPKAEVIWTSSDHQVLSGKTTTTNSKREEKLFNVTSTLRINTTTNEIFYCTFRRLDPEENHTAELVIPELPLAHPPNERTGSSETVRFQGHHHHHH
Text: The ability of the macrocyclic peptides of the present disclosure to bind to PD-L1 was investigated using a PD-1/PD-L1 Homogenous Time-Resolved Fluorescence (HTRF) binding assay.
Homogenous Time-Resolved Fluorescence (HTRF) Assays of Binding of Soluble PD-1 to Soluble PD-L1. Soluble PD-1 and soluble PD-L1 refers to proteins with carboxyl-end truncations that remove the transmembrane-spanning regions and are fused to heterologous sequences, specifically the Fc portion of the human immunoglobuling G sequence (Ig) or the hexahistidine epitope tag (His). All binding studies were performed in an HTRF assay buffer consisting of dPBS supplemented with 0.1% (w/v) bovine serum albumin and 0.05% (v/v) Tween-20. […] PD-L1 fusion proteins from either human, cynomologous macaques, or mouse were used. HTRF detection was achieved using europium crypate-labeled anti-Ig monoclonal antibody (1 nM final) and allophycocyanin (APC) labeled anti-His monoclonal antibody (20 nM final). Antibodies were diluted in HTRF detection buffer and 5 μl was dispensed on top of binding reaction.

[1] = target: T2, LK35.2-hPD-L1 cells / PE-labeled PD-1-Ig (Homo sapiens, UniProt Q9NZQ7); test: LK35.2-hPD-L1 cell binding high-content screening assay; format: cell-based; conditions: cell binding assay, cell line not given; cluster symbol; read-out: CBA IC50 cluster
T2 construct: expressed in transfected cells; host or cells: LK35.2 mouse B cell line
T2 sequence (Q9NZQ7 19-290): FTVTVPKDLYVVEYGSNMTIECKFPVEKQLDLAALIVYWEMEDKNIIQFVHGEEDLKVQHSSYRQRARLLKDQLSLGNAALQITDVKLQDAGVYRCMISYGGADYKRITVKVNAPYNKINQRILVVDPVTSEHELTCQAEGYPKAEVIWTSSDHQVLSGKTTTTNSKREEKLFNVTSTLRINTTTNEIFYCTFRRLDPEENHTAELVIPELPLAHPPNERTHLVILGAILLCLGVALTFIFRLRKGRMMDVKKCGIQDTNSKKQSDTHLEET
Method: LK35.2-hPD-L1 Cell Binding High-Content Screening Assay. Phycoerythrin (PE) was covalently linked to the Ig epitope tag of human PD-1-Ig and fluorescently-labeled PD-1-Ig was used for binding studies with a mouse B cell line (LK35.2) stably over-expressing human PD-L1 (LK35.2-hPD-L1). Briefly, 3×10^3 LK35.2-hPD-L1 cells were seeded into 384 well plates in 20 ul of RPMI supplemented with 10% fetal calf serum and cultured overnight. 125 nl of compound was added to cells, followed by 5 ul of PE-labeled PD-1-Ig (1 nM final), diluted in RPMI supplemented with 10% fetal calf serum, followed by incubation at 37° C. for 1 h. […] Cells were washed 3× in 100 ul of dPBS followed by final addition of 15 ul of dPBS. Data was collected and processed using a Cell Insight NXT High Content Imager and associated software.

[2] = Table 9, Compound No. 71 variant macrocyclic peptides, read-out: HTRF Human PD-L1/PD-1 Binding Assay IC50
[3] = Table 7, Compound No. 99 variant macrocyclic peptides, read-out: HTRF Human PD-L1/PD-1 Binding Assay IC50
[4] = Table 10, Compound No. 116 variant macrocyclic peptides, read-out: HTRF Human PD-L1/PD-1 Binding Assay IC50

- IC50 (Human PD-L1/PD-1; [2]): 47 nM
Structure (SMILES): CCCC[C@H]1C(=O)N(C)CC(=O)N[C@@H](CC(=O)O)C(=O)N[C@@H](C(C)C)C(=O)N[C@@H](Cc2ccccc2)C(=O)N[C@@H](Cc2ccc(O)cc2)C(=O)N(C)CC(=O)N[C@@H](Cc2c[nH]c3ccccc23)C(=O)N[C@@H](Cc2ccc(O)cc2)C(=O)N[C@@H](CC(C)C)C(=O)N[C@H](C(=O)NCC(N)=O)CSCC(=O)N[C@@H](Cc2ccccc2)C(=O)N(C)[C@@H](Cc2ccccc2)C(=O)N1C [Compound No. 82] (HELM PEPTIDE1{[O=C(C[*:3])[*:2]].F.[meF].[CCCC[C@@H](C(=O)[*:2])N(C)[*:1]].[Sar].D.V.F.Y.[Sar].W.Y.L.C.G.[am]}$PEPTIDE1,PEPTIDE1,1:R3-14:R3$$$V2.0)

- IC50 (Human PD-L1/PD-1; [2]): 35 nM
Structure (SMILES): CCCC[C@H]1C(=O)N(C)CC(=O)N[C@@H](CC(=O)O)C(=O)N[C@@H](C(C)C)C(=O)N(C)[C@@H](Cc2ccccc2)C(=O)N[C@@H](C)C(=O)N(C)CC(=O)N[C@@H](Cc2c[nH]c3ccccc23)C(=O)N[C@@H](Cc2ccc(O)cc2)C(=O)N[C@@H](CC(C)C)C(=O)N[C@H](C(=O)NCC(N)=O)CSCC(=O)N[C@@H](Cc2ccccc2)C(=O)N(C)[C@@H](Cc2ccccc2)C(=O)N1C [Compound No. 83] (HELM PEPTIDE1{[O=C(C[*:3])[*:2]].F.[meF].[CCCC[C@@H](C(=O)[*:2])N(C)[*:1]].[Sar].D.V.[meF].A.[Sar].W.Y.L.C.G.[am]}$PEPTIDE1,PEPTIDE1,1:R3-14:R3$$$V2.0)

- IC50 (Human PD-L1/PD-1; [3]): > 20000 nM
Structure (SMILES): CC[C@H](C)[C@@H]1NC(=O)[C@H](C(C)C)NC(=O)[C@H]([C@@H](C)CC)NC(=O)[C@@H](Cc2ccccc2)NC(=O)[C@H](Cc2ccccc2)NC(=O)CSC[C@@H](C(=O)NCC(N)=O)NC(=O)[C@H](CCCNC(=N)N)NC(=O)[C@H](Cc2ccccc2)NC(=O)[C@H](C(C)C)NC(=O)[C@H](CCCNC(=N)N)NC(=O)[C@H](CC(=O)O)NC(=O)[C@H](CCCNC(=N)N)NC1=O [Compound No. 102] (HELM PEPTIDE1{[O=C(C[*:3])[*:2]].F.[dF].I.V.I.R.D.R.V.F.R.C.G.[am]}$PEPTIDE1,PEPTIDE1,1:R3-13:R3$$$V2.0)

- IC50 (Human PD-L1/PD-1; [3]): > 20000 nM
Structure (SMILES): CC[C@H](C)[C@@H]1NC(=O)[C@H](CC(C)C)NC(=O)[C@H](Cc2ccccc2)NC(=O)CSC[C@@H](C(=O)NCC(N)=O)NC(=O)[C@H](CCCNC(=N)N)NC(=O)[C@H](Cc2ccccc2)NC(=O)[C@H](C(C)C)NC(=O)[C@H](CCCNC(=N)N)NC(=O)[C@H](CC(=O)O)NC(=O)[C@H](CC(C)C)NC(=O)[C@H]([C@@H](C)CC)NC(=O)[C@H](C(C)C)NC1=O [Compound No. 109] (HELM PEPTIDE1{[O=C(C[*:3])[*:2]].F.L.I.V.I.L.D.R.V.F.R.C.G.[am]}$PEPTIDE1,PEPTIDE1,1:R3-13:R3$$$V2.0)

- IC50 (Human PD-L1/PD-1; read-out: HTRF IC50 value): 5.05 nM
Structure (SMILES): CCCC[C@H]1C(=O)N(C)[C@@H](CCCC)C(=O)N[C@@H](CCCNC(=N)N)C(=O)N[C@H](C(=O)NCC(N)=O)CSCC(=O)N[C@@H](Cc2ccc(Cl)cc2)C(=O)N(C)[C@@H](C)C(=O)N[C@@H](CC(N)=O)C(=O)N2CCC[C@H]2C(=O)N[C@@H](Cc2cnc[nH]2)C(=O)N[C@@H](CC(C)C)C(=O)N2C[C@H](O)C[C@H]2C(=O)N[C@@H](Cc2c[nH]c3ccccc23)C(=O)N[C@@H](CO)C(=O)N[C@@H](Cc2csc3ccccc23)C(=O)N1C [Example 1125] ({CH2CO}-[Phe(4-Cl)][NMeA]NPHL[Hyp]WS[Bta][NMeNle][NMeNle]RCG-NH2; thioether N-14)

- IC50 [1]: 0.158 to 4.71 nM
Structure (SMILES): CCCC[C@H]1C(=O)N(C)CC(=O)N[C@@H](CC(=O)O)C(=O)N[C@@H](C(C)C)C(=O)N(C)[C@@H](Cc2ccccc2)C(=O)N[C@@H](Cc2ccc(O)cc2)C(=O)N2C[C@@H](O)C[C@@H]2C(=O)N[C@@H](Cc2c[nH]c3ccccc23)C(=O)N[C@@H](Cc2ccc(O)cc2)C(=O)N[C@@H](CC(C)C)C(=O)N[C@H](C(=O)NCC(N)=O)CSCC(=O)N[C@@H](Cc2ccccc2)C(=O)N(C)[C@@H](Cc2ccccc2)C(=O)N1C [Example 3583] ({CH2CO}-F[NMeF][NMeNle][Sar]DV[NMeF]Y[dHyp]WYLCG-NH2; thioether N-13)

- IC50 [1]: 4.78 to 72.9 nM
Structure (SMILES): CCCC[C@H]1C(=O)N[C@@H](CCCNC(=N)N)C(=O)NC(C(=O)NCC(N)=O)CSCC(=O)N[C@@H](Cc2ccc(O)cc2)C(=O)N(C)[C@@H](C)C(=O)N[C@@H](CC(N)=O)C(=O)N2CCC[C@H]2C(=O)N[C@@H](CN)C(=O)N[C@@H](CC(C)C)C(=O)N2CCC[C@H]2C(=O)N[C@@H](Cc2c[nH]c3ccccc23)C(=O)N[C@@H](CO)C(=O)N[C@@H](Cc2c[nH]c3ccccc23)C(=O)N(C)[C@@H](CCSC)C(=O)N1C (stereo partly drawn) [Example 9097] ({CH2CO}-Y[NMeA]NP[Dap]LPWSW[NMeM][NMeNle]R[ξC]G-NH2; thioether N-14)

The next lines start with the compound.

Structure (SMILES): CCCC[C@H]1C(=O)N(C)[C@@H](CCCC)C(=O)N[C@@H](CCCNC(=N)N)C(=O)N[C@H](C(=O)NCC(=O)NCCOCCOCCOCCOCCOCCOCCOCCOCCOCCOCCOCCOCCC(N)=O)CSCC(=O)N[C@@H](Cc2ccccc2)C(=O)N(C)[C@@H](C)C(=O)N[C@@H](CC(N)=O)C(=O)N2CCC[C@H]2C(=O)N[C@@H](Cc2cnc[nH]2)C(=O)N[C@@H](CC(C)C)C(=O)N(C)CC(=O)N[C@@H](Cc2c[nH]c3ccccc23)C(=O)N[C@@H](CO)C(=O)N[C@@H](Cc2c[nH]c3ccccc23)C(=O)N1C [Compound No. 116] ({CH2CO}-F[NMeA]NPHL[Sar]WSW[NMeNle][NMeNle]RCG[PEG12]-NH2; thioether N-14)
- IC50 (Human PD-L1/PD-1; [4]): 21 nM

Structure (SMILES): CCCC[C@H]1C(=O)N(C)[C@@H](CCCC)C(=O)N[C@@H](CC(C)C)C(=O)N[C@H](C(=O)NCC(=O)NCCOCCOCCOCCOCCOCCOCCOCCOCCOCCOCCOCCOCCC(N)=O)CSCC(=O)N[C@@H](Cc2ccccc2)C(=O)N(C)[C@@H](C)C(=O)N[C@@H](CC(N)=O)C(=O)N2CCC[C@H]2C(=O)N[C@@H](Cc2cnc[nH]2)C(=O)N[C@@H](Cc2cnc[nH]2)C(=O)N[C@@H](CO)C(=O)N[C@@H](Cc2c[nH]c3ccccc23)C(=O)N[C@@H](CCCNC(=N)N)C(=O)N[C@@H](Cc2c[nH]c3ccccc23)C(=O)N1C [Compound No. 117] ({CH2CO}-F[NMeA]NPHHSWRW[NMeNle][NMeNle]LCG[PEG12]-NH2; thioether N-14)
- IC50 (Human PD-L1/PD-1; [4]): 21 nM

Structure (SMILES): CCCC[C@H]1C(=O)N(C)CC(=O)N[C@@H](CC(=O)O)C(=O)N[C@@H](C(C)C)C(=O)N(C)[C@@H](Cc2ccccc2)C(=O)N[C@@H](Cc2ccc(O)cc2)C(=O)N(C)CC(=O)N[C@@H](Cc2c[nH]c3ccccc23)C(=O)N[C@@H](Cc2ccc(O)cc2)C(=O)N[C@@H](CC(C)C)C(=O)N[C@H](C(=O)NCC(=O)NCCOCCOCCOCCOCCOCCOCCOCCOCCOCCOCCOCCOCCC(N)=O)CSCC(=O)N[C@@H](Cc2ccccc2)C(=O)N(C)[C@@H](Cc2ccccc2)C(=O)N1C [Compound No. 118] ({CH2CO}-F[NMeF][NMeNle][Sar]DV[NMeF]Y[Sar]WYLCG[PEG12]-NH2; thioether N-13)
- IC50 (Human PD-L1/PD-1; [4]): 3 nM

Structure (SMILES): CCCC[C@H]1C(=O)N(C)[C@@H](CCCC)C(=O)N[C@@H](CCCN)C(=O)N[C@H](C(=O)NCC(N)=O)CSCC(=O)N[C@@H](Cc2ccc(O)cc2)C(=O)N2CCC[C@H]2C(=O)N[C@@H](CC(N)=O)C(=O)N2CCC[C@H]2C(=O)N[C@@H](Cc2cnc[nH]2)C(=O)N[C@@H](CC(C)C)C(=O)N2C[C@H](O)C[C@H]2C(=O)N[C@@H](Cc2c[nH]c3ccccc23)C(=O)N[C@@H](CO)C(=O)N[C@@H](Cc2c[nH]c3ccccc23)C(=O)N1C [Example 1173] ({CH2CO}-YPNPHL[Hyp]WSW[NMeNle][NMeNle][Orn]CG-NH2; thioether N-14)
- IC50 (Human PD-L1/PD-1; read-out: HTRF IC50 value): 2.71 nM

Structure (SMILES): CCCC[C@H]1C(=O)N(C)CC(=O)N[C@@H](CC(=O)O)C(=O)N[C@@H](C(C)C)C(=O)N(C)[C@@H](Cc2ccccc2)C(=O)N[C@@H](Cc2ccc(O)cc2)C(=O)N(C)CC(=O)N[C@@H](Cc2c[nH]c3ccccc23)C(=O)N[C@@H](Cc2ccc(O)cc2)C(=O)N[C@@H](CC(C)C)C(=O)N[C@H](C(=O)NCC(N)=O)CSCC(=O)N[C@@H](Cc2ccccc2)C(=O)N(C)[C@@H](Cc2cnc[nH]2)C(=O)N1C [Example 3056-B] (HELM PEPTIDE1{[O=C(C[*:3])[*:2]].F.[meH].[CCCC[C@@H](C(=O)[*:2])N(C)[*:1]].[Sar].D.V.[meF].Y.[Sar].W.Y.L.C.G.[am]}$PEPTIDE1,PEPTIDE1,1:R3-14:R3$$$V2.0)
- IC50 (Human PD-L1/PD-1; cluster symbol, read-out: HTRF IC50 cluster): 6.76 to 30.3 nM
